In patent publication US11667652B2, “MCL1 inhibitors” (Gilead Sciences, Inc., priority 2019, dated 2023):
Like-named read-outs stand apart in the source and are kept apart here.

Legend:
MCL1/Bim = MCL1/Bim (Homo sapiens (Human), UniProt Q07820); experiment: MCL1/Bim Binding AlphaLISA Assay; conditions: recombinant human 6xHis-MCL1 (171-327), biotinylated Bim peptide (51-76)
How it was run: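 AlphaLISA with 0.0625 nM human 6×His-MCL1 (171-327) and 0.0625 nM biotinylated Bim (51-76) peptide in 20 mM Hepes pH 7.5, 150 mM NaCl, 0.002% Brij 35, 1 mM DTT, 0.01% BSA. Compound preincubated with MCL1 1 h, Bim added 2 h, then acceptor and donor beads 1 h each; % inhibition versus DMSO and no-protein/peptide controls.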

SKBR3 cells = experiment: SKBR3 Cell Viability Assay; type: cell-based; conditions: CellTiter Glo, read-out: MCL1 CV SKBR3 EC50
How it was run: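 Viability was measured by CellTiter-Glo luminescence after 72 h at 37° C, 5% CO2. Each well held 6,000 SKBR3 cells in McCoy's 5A/10% FBS dispensed onto serially diluted compound. Percent inhibition is relative to DMSO and 10 μM puromycin controls.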

[1] = Homo sapiens, SK-BR-3, 72 hours

Sequence of MCL1/Bim (Q07820 171-327): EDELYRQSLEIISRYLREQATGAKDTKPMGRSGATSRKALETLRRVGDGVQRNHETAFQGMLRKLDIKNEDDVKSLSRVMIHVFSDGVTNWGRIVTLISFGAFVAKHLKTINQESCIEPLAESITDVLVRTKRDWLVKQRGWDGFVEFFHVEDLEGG

| Structure (SMILES) | IC50 (MCL1/Bim) [nM] | EC50 (SKBR3 cells; [1]) [nM] | EC50 (SKBR3 cells; 72 hours) [nM] |
| --- | --- | --- | --- |
| CO[C@H]1/C=C/CCC[S@@](=O)(NC(=O)NC2CC2)=NC(=O)c2ccc3c(c2)N(C[C@@H]2CC[C@H]21)C[C@]1(CO3)C[C@@H]2C[C@@H]2c2cc(Cl)ccc21 [Example 175] | 0.24 | 638 | – |
| COCC#CCO[C@H]1/C=C/[C@H](OC)[C@@H]2CC[C@H]2CN2C[C@@]3(CCCc4cc(Cl)ccc43)COc3ccc(cc32)C(=O)N=[S@](=O)(NC(=O)c2cn(C)nc2OC)C[C@H]1C [Example 75] | 0.217 | 171 | – |
| COc1nn(C)cc1C(=O)N[S@@]1(=O)=NC(=O)c2ccc3c(c2)N(C[C@@H]2CC[C@H]2[C@@H](OC)C[C@H]2CCO[C@@H]2[C@H](C)C1)C[C@@]1(CCCc2cc(Cl)ccc21)CO3 [Example 135] | 0.057 | 92.2 | – |
| CO[C@H]1/C=C/C[C@H](C)C[S@@](=O)(NC(=O)[C@H]2C[C@@](C)(O)C2)=NC(=O)c2ccc3c(n2)N(C[C@@H]2CC[C@H]21)C[C@@]1(CCCc2cc(Cl)ccc21)CO3 [Example 190] | 0.15 | 306 | – |
| CO[C@H]1/C=C/C[C@H](C)C[S@@](=O)(NC(=O)NCC2CC2)=NC(=O)c2ccc3c(c2)N(C[C@@H]2CC[C@H]21)C[C@]1(CO3)C[C@@H]2C[C@@H]2c2cc(Cl)ccc21 [Example 165] | 0.18 | 369 | – |
| CO[C@H]1/C=C/C[C@H](C)C[S@@](=O)(NC(=O)c2cn(C)nc2C#CC(C)(C)O)=NC(=O)c2ccc3c(c2)N(C[C@@H]2CC[C@H]21)C[C@@]1(CCCc2cc(Cl)ccc21)CO3 [Example 209] | 0.04 | 127 | – |
| CO[C@H]1/C=C/C[C@H](C)C[S@@](=O)(Nc2ncnc3c2cnn3C)=NC(=O)c2ccc3c(c2)N(C[C@@H]2CC[C@H]21)C[C@@]1(CCCc2cc(Cl)ccc21)CO3 [Example 4] | 0.196 | 240 | – |
| COc1nn(C)cc1C(=O)N[S@@]1(=O)=NC(=O)c2ccc3c(c2)N(C[C@@H]2CC[C@H]2[C@@](O)(CC(=O)N2CC(N4CCOCC4)C2)/C=C/C[C@H](C)C1)C[C@@]1(CCCc2cc(Cl)ccc21)CO3 [Example 106] | 0.038 | – | 133 |
| CO[C@H]1/C=C/C[C@H](C)[C@@H](C)[S@@](=O)(NC(=O)c2cnn(C)c2)=NC(=O)c2ccc3c(n2)N(C[C@@H]2CC[C@H]21)C[C@@]1(CCCc2cc(Cl)ccc21)CO3 [Example 200] | 0.05 | 21.1 | – |
| CO[C@H]1/C=C/C[C@H](C)C[S@@](=O)(NC(=O)c2cnn(C)c2)=NC(=O)c2ccc3c(c2)N(C[C@@H]2CC[C@H]21)C[C@]1(CO3)SCCc2cc(Cl)ccc21 [Example 176] | 0.06 | 72.5 | – |
| CO[C@H]1/C=C/C[C@H](C)C[S@@](=O)(NC(=O)c2cn(C)nc2N2CCN(C3COC3)CC2)=NC(=O)c2ccc3c(c2)N(C[C@@H]2CC[C@H]21)C[C@@]1(CCCc2cc(Cl)ccc21)CO3 [Example 24] | 0.026 | 10.3 | – |
| CCn1cc(C(=O)N[S@@]2(=O)=NC(=O)c3ccc4c(c3)N(C[C@@H]3CC[C@H]3[C@@H](OC)/C=C/C[C@H](C)[C@H]2C)C[C@]2(CO4)C[C@@H]3C[C@@H]3c3cc(Cl)ccc32)cn1 [Example 170] | 0.155 | 113 | – |
| COc1nn(C)cc1C(=O)N[S@@]1(=O)=NC(=O)c2ccc3c(c2)N(C[C@@H]2CC[C@H]2/C=C/CC[C@H](C)C1)C[C@@]1(CCCc2cc(Cl)ccc21)CO3 (mixture of isomers) [Example 129] | 0.142 | – | 1210 |
| CO[C@H]1/C=C/C[C@H](C)C[S@@](=O)(NC(=O)c2cn(C)nc2N2CCN3CCOC[C@@H]3C2)=NC(=O)c2ccc3c(c2)N(C[C@@H]2CC[C@H]21)C[C@@]1(CCCc2cc(Cl)ccc21)CO3 [Example 23] | 0.083 | 17.3 | – |
| Cn1nccc1CCC(=O)NS1(=O)=NC(=O)c2ccc3c(c2)N(C[C@@H]2CC[C@H]2[C@@H](OCCN2CCOCC2)/C=C/CCC1)C[C@@]1(CCCc2cc(Cl)ccc21)CO3 (stereo partly drawn) [Example 49] | 0.194 | – | 525 |
| COc1nn(C)cc1C(=O)N[S@@]1(=O)=NC(=O)c2ccc3c(c2)N(C[C@@H]2CC[C@H]2[C@@H](OCCN2CCN(C4COC4)CC2)/C=C/C[C@H](C)C1)C[C@@]1(CCCc2cc(Cl)ccc21)CO3 [Example 60] | 0.07 | 19.2 | – |
| CC[C@H]1C/C=C/[C@H](OC)[C@@H]2CC[C@H]2CN2C[C@@]3(CCCc4cc(Cl)ccc43)COc3ccc(cc32)C(=O)N=[S@@](=O)(NC(=O)c2cnn(C)c2)C1 [Example 43] | 1.67 | – | 3570 |

| Structure (SMILES) | IC50 (MCL1/Bim) [nM] | EC50 (SKBR3 cells; [1]) [nM] | EC50 (SKBR3 cells; 72 hours) [nM] |
| --- | --- | --- | --- |
| CO[C@H]1/C=C/C[C@H](C)C[S@@](=O)(Nc2ncnc3nn(C)cc23)=NC(=O)c2ccc3c(c2)N(C[C@@H]2CC[C@H]21)C[C@@]1(CCCc2cc(Cl)ccc21)CO3 [Example 8] | 0.061 | 26.5 | – |
| COc1nn(C)cc1C(=O)N[S@@]1(=O)=NC(=O)c2ccc3c(c2)N(C[C@@H]2CC[C@H]2[C@@](CN2CCN(C4COC4)CC2)(OC)/C=C/C[C@H](C)C1)C[C@@]1(CCCc2cc(Cl)ccc21)CO3 [Example 116] | 0.102 | 13.4 | – |
| COc1ncc2c(N[S@@]3(=O)=NC(=O)c4ccc5c(c4)N(C[C@@H]4CC[C@H]4[C@@H](OC)/C=C/C[C@H](C)C3)C[C@@]3(CCCc4cc(Cl)ccc43)CO5)ncnc2n1 [Example 22] | 0.121 | 169 | – |
| CO[C@H]1/C=C/C[C@H](C)[C@@H](C)[S@@](=O)(NC(=O)c2cc3n(c2)CCOC3)=NC(=O)c2ccc3c(c2)N(C[C@@H]2CC[C@H]21)C[C@]1(CO3)SCCc2cc(Cl)ccc21 [Example 181] | 0.27 | 57 | – |
| COc1nn(C)cc1C(=O)N[S@@]1(=O)=NC(=O)c2ccc3c(c2)N(C[C@@H]2CC[C@H]2[C@H]2OCCCC2CC[C@H](C)C1)C[C@@]1(CCCc2cc(Cl)ccc21)CO3 (mixture of isomers) [Example 138] | 1.54 | – | 1050 |
| CO[C@H]1/C=C/CCC[S@@](=O)(NC(=O)c2cc3n(c2)CCOC3)=NC(=O)c2ccc3c(c2)N(C[C@@H]2CC[C@H]21)C[C@]1(CO3)SCCc2cc(Cl)ccc21 [Example 184] | 0.26 | 262 | – |
| C[C@H]1C/C=C/[C@H](OCCN2CCOCC2)[C@@H]2CC[C@H]2CN2C[C@@]3(CCCc4cc(Cl)ccc43)COc3ccc(cc32)C(=O)N=[S@](=O)(Nc2ncnc3nn(C)cc23)C1 [Example 52] | 0.081 | 9.5 | – |
| COc1nn(C)cc1C(=O)N[S@@]1(=O)=NC(=O)c2ccc3c(c2)N(C[C@@H]2CC[C@H]2[C@@H](OC)/C=C/[C@@](C)(O)[C@H](C)C1)C[C@@]1(CCCc2cc(Cl)ccc21)CO3 [Example 120] | 0.034 | – | 35.2 |
| CO[C@H]1/C=C/CCC[S@@](=O)(NC(=O)c2cc3n(c2)CCOC3)=NC(=O)c2ccc3c(c2)N(C[C@@H]2CC[C@H]21)C[C@]1(CO3)C[C@@H]2C[C@@H]2c2cc(Cl)ccc21 [Example 174] | 0.25 | 354 | – |
| COc1nn(C)cc1C(=O)N[S@@]1(=O)=NC(=O)c2ccc3c(c2)N(C[C@@H]2CC[C@H]2[C@](O)(CCN2CCOCC2)/C=C/C[C@H](C)C1)C[C@@]1(CCCc2cc(Cl)ccc21)CO3 [Example 114] | 0.319 | – | 51 |
| CO[C@H]1/C=C/C[C@H](C)[C@@H](C)[S@@](=O)(NC(=O)c2cc3n(c2)CCOC3)=NC(=O)c2ccc3c(c2)N(C[C@@H]2CC[C@H]21)C[C@]1(CO3)C[C@@H]2C[C@@H]2c2cc(Cl)ccc21 [Example 172] | 0.605 | 160 | – |
| CO[C@H]1/C=C/C[C@H](C)C[S@@](=O)(NC(=O)N[C@H]2C[C@@H]2OC)=NC(=O)c2ccc3c(n2)N(C[C@@H]2CC[C@H]21)C[C@@]1(CCCc2cc(Cl)ccc21)CO3 (mixture of isomers) [Example 188] | 0.06 | 31.9 | – |
| COc1nn(C)cc1C(=O)N[S@@]1(=O)=NC(=O)c2ccc3c(n2)N(C[C@@H]2CC[C@H]2[C@@H](OC)/C=C/[C@H](O)[C@H](C)C1)C[C@@]1(CCCc2cc(Cl)ccc21)CO3 (mixture of isomers) [Example 196] | 0.04 | 81.4 | – |
| CO[C@H]1/C=C/C[C@H](C)C[S@@](=O)(Nc2nc(NCCN3CCOCC3)nc3nn(C)cc23)=NC(=O)c2ccc3c(c2)N(C[C@@H]2CC[C@H]21)C[C@@]1(CCCc2cc(Cl)ccc21)CO3 [Example 20] | 0.313 | 41.3 | – |
| COc1nn(C)cc1C(=O)N[S@@]1(=O)=NC(=O)c2ccc3c(c2)N(C[C@@H]2CC[C@H]2[C@@H](OC)C[C@H]2CCO[C@@H]2[C@H](C)[C@H]1C)C[C@@]1(CCCc2cc(Cl)ccc21)CO3 [Example 159] | 0.689 | – | 381 |
| COc1nn(C)cc1C(=O)N[S@@]1(=O)=NC(=O)c2ccc3c(c2)N(C[C@@H]2CC[C@H]2[C@@H](OC)/C=C/[C@H](OCc2ccncc2)[C@H](C)C1)C[C@@]1(CCCc2cc(Cl)ccc21)CO3 [Example 84] | 0.099 | 90 | – |
